Results taken from patent publication US20250009713A1 (priority 2021, published 2025).

Assays:
Assay type in all cases: cell-based
[1] = test system: SARS-COV-2 US-PHC658/2021 (delta variant; NR-55611); assay: microbe, parasite or virus in culture; settings: PCR, Calu-3, virus Delta
[2] = test system: SARS-COV-2 USA/MD-HP20874/2021 (omicron variant; NR-56461); assay: microbe, parasite or virus in culture; settings: PCR, Calu-3, virus Omicron
[3] = test system: SARS-COV-2 SouthAfrica/KRISP-K005325/2020 (beta variant; NR-54009); assay: microbe, parasite or virus in culture; settings: PCR, Calu-3, virus SA
[4] = test system: SARS-COV-2 England/204820464/2020 (alpha variant; NR-54000); assay: microbe, parasite or virus in culture; settings: PCR, Calu-3, virus UK
[5] = test system: SARS-COV-2 US-PHC658/2021 (delta variant; NR-55611); assay: microbe, parasite or virus in culture; settings: PCR, Vero, virus Delta
[6] = test system: SARS-COV-2 USA/MD-HP20874/2021 (omicron variant; NR-56461); assay: microbe, parasite or virus in culture; settings: PCR, Vero, virus Omicron
[7] = test system: SARS-COV-2 SouthAfrica/KRISP-K005325/2020 (beta variant; NR-54009); assay: microbe, parasite or virus in culture
[8] = test system: SARS-COV-2 England/204820464/2020 (alpha variant; NR-54000); assay: microbe, parasite or virus in culture
[9] = test system: SARS-COV-2 US-PHC658/2021 (delta variant; NR-55611); assay: microbe, parasite or virus in culture; settings: Plaque, Calu-3, virus Delta
[10] = test system: SARS-COV-2 USA/MD-HP20874/2021 (omicron variant; NR-56461); assay: microbe, parasite or virus in culture; settings: Plaque, Calu-3, virus Omicron
[11] = test system: SARS-COV-2 SouthAfrica/KRISP-K005325/2020 (beta variant; NR-54009); assay: microbe, parasite or virus in culture; settings: Plaque, Calu-3, virus SA
[12] = test system: SARS-COV-2 England/204820464/2020 (alpha variant; NR-54000); assay: microbe, parasite or virus in culture; settings: Plaque, Calu-3, virus UK
[13] = test system: SARS-COV-2 US-PHC658/2021 (delta variant; NR-55611); assay: microbe, parasite or virus in culture; settings: Plaque, Vero, virus Delta
[14] = test system: SARS-COV-2 USA/MD-HP20874/2021 (omicron variant; NR-56461); assay: microbe, parasite or virus in culture; settings: Plaque, Vero, virus Omicron
[15] = test system: SARS-COV-2 SouthAfrica/KRISP-K005325/2020 (beta variant; NR-54009); assay: microbe, parasite or virus in culture; settings: Plaque, Vero, virus SA
[16] = test system: SARS-COV-2 England/204820464/2020 (alpha variant; NR-54000); assay: microbe, parasite or virus in culture; settings: Plaque, Vero, virus UK
[17] = test system: SARS-COV-2 strain US (US-WA1/2020); assay: plaque assay, strain US, summary over cell types; settings: Severe acute respiratory syndrome coronavirus 2, two-way ANOVA estimate
[18] = Severe acute respiratory syndrome coronavirus 2, m.o.i 0.1, […]
[19] = PCR, Vero, virus SA, log-logistic curve fit
[20] = Severe acute respiratory syndrome coronavirus 2, Vero
[21] = PCR, Vero, virus UK, log-logistic curve fit

In the case of `Cn1cc(-c2cccc3cc(C(=O)NC(=N)N)ccc23)cn1` [BIT225, N-carbamimidoyl-5-(1-methyl-1H-pyrazol-4-yl)-2-naphthamide], the “Max. Response (d)” value ([1]; log-logistic curve fit) is reported as 2.56 log10, the “Slope (b)” value ([1]; log-logistic curve fit) is reported as 1.08 nmol⁻¹ and the EC50 [1, 18] is reported as 4.81 µM. The “Max. Response (d)” value ([2]; log-logistic curve fit) was 2.57 log10, the “Slope (b)” value ([2]; log-logistic curve fit) was 1.08 nmol⁻¹ and the EC50 [2, 18] was 4.37 µM. For the same compound, the “Max. Response (d)” value ([3]; log-logistic curve fit) was 2.67 log10, the “Slope (b)” value ([3]; log-logistic curve fit) was 1.07 nmol⁻¹ and the EC50 [3, 18] was 4.17 µM. The “Max. Response (d)” value ([4]; log-logistic curve fit) was 2.58 log10, the “Slope (b)” value ([4]; log-logistic curve fit) was 1.21 nmol⁻¹ and the EC50 [4, 18] was 2.86 µM. The “Max. Response (d)” value ([5]; log-logistic curve fit) was 3.55 log10, the “Slope (b)” value ([5]; log-logistic curve fit) was 1.15 nmol⁻¹ and the EC50 [5, 18] was 3.59 µM. For the same compound, the “Max. Response (d)” value ([6]; log-logistic curve fit) was 3.51 log10, the “Slope (b)” value ([6]; log-logistic curve fit) was 1.22 nmol⁻¹ and the EC50 [6, 18] was 3.37 µM. The “Max. Response (d)” value [7, 19] was 3.52 log10, the “Slope (b)” value [7, 19] was 1.28 nmol⁻¹ and the EC50 [7, 20] was 2.65 µM. For the same compound, the “Max. Response (d)” value [8, 21] was 3.58 log10, the “Slope (b)” value [8, 21] was 1.07 nmol⁻¹ and the EC50 [8, 20] was 4.56 µM. The “Max. Response (d)” value ([9]; log-logistic curve fit) was 3.44 log10, the “Slope (b)” value ([9]; log-logistic curve fit) was 1.00 nmol⁻¹ and the EC50 [9, 18] was 7.9 µM. For the same compound, the “Max. Response (d)” value ([10]; log-logistic curve fit) was 3.42 log10, the “Slope (b)” value ([10]; log-logistic curve fit) was 1.11 nmol⁻¹ and the EC50 [10, 18] was 7.61 µM. For the same compound, the “Max. Response (d)” value ([11]; log-logistic curve fit) was 3.52 log10, the “Slope (b)” value ([11]; log-logistic curve fit) was 1.34 nmol⁻¹ and the EC50 [11, 18] was 6.79 µM. For the same compound, the “Max. Response (d)” value ([12]; log-logistic curve fit) was 3.43 log10, the “Slope (b)” value ([12]; log-logistic curve fit) was 1.15 nmol⁻¹ and the EC50 [12, 18] was 5.72 µM. For the same compound, the “Max. Response (d)” value ([13]; log-logistic curve fit) was 6.45 log10, the “Slope (b)” value ([13]; log-logistic curve fit) was 1.48 nmol⁻¹ and the EC50 [13, 18] was 6.65 µM. For the same compound, the “Max. Response (d)” value ([14]; log-logistic curve fit) was 6.31 log10, the “Slope (b)” value ([14]; log-logistic curve fit) was 1.41 nmol⁻¹ and the EC50 [14, 18] was 6.5 µM. For the same compound, the “Slope (b)” value ([15]; log-logistic curve fit) was 1.50 nmol⁻¹, the EC50 [15, 18] was 7.26 µM and the “Max. Response (d)” value ([16]; log-logistic curve fit) was 6.41 log10. For the same compound, the EC50 [16, 18] was 6.7 µM and the EC50 [17] was 3.8 µM.
